From patent US20220144850A1, “INDOLO HEPTAMYL OXIME ANALOGUE AS PARP INHIBITOR” (Chia Tai Tianqing Pharmaceutical Group Co., Ltd., priority 2019, published 2022) come the findings set out here.

Data set [1] in a line: Metabolic stability in liver microsomes, mouse. The format is in vitro ADME. The following applies: Mouse liver microsomes 0.5 mg/mL, 1 μM compound, NADPH, 37° C. The method, then: Experimental Example 7. Metabolic Stability in Liver Microsomes
Experimental objective: to test the metabolic stability of test compounds in liver microsomes of three species.
Experimental method: 1 μM test compound and a microsome (0.5 mg/mL) were incubated at 37° C. in the presence of an NADPH regeneration system; positive controls were testosterone (3A4 substrate), propylamine propiophenone (2D6 substrate) and diclofenac (2C9 substrate), and also at 37° C., a positive control was incubated with a microsome (0.5 mg/mL) in the presence of an NADPH regenerating system; the reaction was stopped by direct mixing of the sample with cold acetonitrile containing an internal standard at various time points (0, 5, 10, 20, 30 and 60 min); the compound and microsome were incubated for 60 min in the absence of an NADPH regenerating system; one parallel (n=1) was set at each time point; the samples were analyzed by LC/MS/MS; the concentration of the compound was characterized by the ratio of the analyte peak area to the internal standard peak area.
For orientation: Liver microsomes are a subcellular fraction often used to study metabolism.

Data set [2] in a line: Plasma protein binding rate, SD rat plasma (equilibrium dialysis). The class given is in vitro ADME. To be noted: Sprague-Dawley, SD rats plasma, dialysis 4 h at 37° C. The method, then:
Experimental Example 5: Study on Plasma Protein Binding Rate
The protein binding rates of the compounds disclosed herein in plasma of human, CD-1 mice and SD rats were determined. 796 μL of blank plasma was taken from human, CD-1 mice and SD rats, and added with 4 μL of test compound working solution (400. μM) or warfarin working solution (400 μM) to achieve a final concentration of 2 μM of both the test compound and the warfarin in the plasma sample. The samples were mixed well. The final concentration of organic phase DMSO was 0.5%; 50 μL of test compound and warfarin plasma sample was pipetted into a sample receiving plate (three parallels), and a corresponding volume of blank plasma or buffer was immediately added such that the final volume of each sample well was 100 μL. The volume ratio of plasma to dialysis buffer was 1:1, and 400 μL of stop solution was added to these samples, which were used as TO samples for determination of recovery rate and stability. The TO samples were stored at 2-8° C. for subsequent treatment with other dialyzed samples; 150 μL of the test compound and warfarin plasma sample was added to a drug delivery end of each dialysis well, and 150 μL of blank dialysis buffer was added to a corresponding receiving end of the dialysis well. The dialysis plate was then sealed with a gas permeable membrane and placed in a humid, 5% CO2 incubator and incubated at 37° C. for 4 h while shaking at about 100 rpm. After the dialysis was completed, 50 μL of the dialyzed buffer sample and dialyzed plasma sample were pipetted to a new sample receiving plate. A corresponding volume of corresponding blank plasma or buffer was added to the samples such that the final volume of each sample well was 100 μL, and the volume ratio of plasma to dialysis buffer was 1:1. All samples were subjected to LC/MS analysis after protein precipitation, and the protein binding rates and the recovery rates were calculated by the following formulas: protein unbinding rate (%)=100×drug concentration passing through dialysis membrane/drug concentration not passing through dialysate; protein binding rate (%)=100−protein unbinding rate (%); recovery rate (%)=100×(drug concentration passing through dialysis membrane+drug concentration not passing through dialysate)/total drug concentration before dialysis.
For orientation: In equilibrium dialysis only unbound substance equilibrates across the membrane.

In the next data set the test system is PARylation. The data set can be described thus: PARylation inhibition in Lovo cells (H2O2 stimulated, anti-PAR antibody). The following applies: Homo sapiens, 25 mM H2O2. The class given is cell-based. The method, then:
Experimental Example 4: Anti-Proliferation Experiment on PARylation
Experimental materials: test compounds; F12K medium; Lovo cells; Anti-Poly (ADP-ribose) mouse monoclonal antibody; FITC-labeled goat anti-mouse IgG; hydrogen peroxide; DAPI; PBS; methanol; acetone; Tween-20; skimmed milk powder; Envision multi-marker analyzer.
Day one: Lovo cells were plated on a plate at 60,000 cells/well, and then incubated overnight at 37° C./5% CO2.
Day two: reagents were prepared: • 1. Washing solution: Tween-20 was added to 1-fold PBS, and the final concentration of Tween-20 was 0.05%. • 2. Blocking solution: skimmed milk powder was added to the washing solution, and the final concentration of skimmed milk powder was 5%. • 3. Cell stationary solution: methanol and acetone were mixed in a ratio of 7:3.
Preparation of test compounds: compound intermediate plate 1: compounds were diluted to final concentrations of 10 μM to 0.13 nM with DMSO and PBS, and the concentration of DMSO was 1%. Compound intermediate plate 2: compounds were diluted to final concentrations of 10 μM to 0.13 nM with DMSO and PBS containing 50 mM hydrogen peroxide, and the concentration of DMSO was 1%.
1. Cell supernatant was removed, and compound was transferred from the compound intermediate plate 1 to the cell plate at 40 μL per well, and the mixture was incubated at 37° C. for 30 min.
Compound wells: compound, DMSO 1%;
Negative and positive controls: 1% DMSO added;
Blank controls: cell-free wells, PBS added.
2. After the incubation was completed, compound was transferred from the compound intermediate plate 2 to the cell plate at 40 μL per well, and the final concentration of H2O2 was 25 mM.
Compound wells: compound+25 mM H2O2
Positive and negative controls: 1% DMSO+25 mM H2O2
Blank controls: cell-free wells, PBS added
4. After the incubation was completed, the cell plate was washed once with PBS pre-cooled on ice and added with 100 μL of pre-cooled cell stationary solution per well. After the cell plate was left to stand at −20° C. for 10 min, the cell stationary solution was shaken off. 5. After being air-dried, the cell plate was washed with PBS at 200 μL per well, and then the PBS was discarded. 6. The cell plate was added with blocking solution at 100 μL per well and incubated at 25° C. for 30 min, after which the blocking solution was shaken off. 7. Anti-PAR antibody which was diluted in blocking solution at a ratio of 1:50, was added to the cell plate at 25 μL per well, and then the mixture was incubated at 25° C. for 60 min.
Negative control wells: blocking solution added at 25 μL/well
Blank control wells: blocking solution added at 25 μL/well
8. […] After removal of the liquid, corresponding fluorescence values were read on Envision: FITC: 480 nm and 530 nm; DAPI: 360 nm and 460 nm. […]

Molecules are shown by their SMILES.

Broadly, the fraction unbound is the share of the substance not bound to proteins or other matrix. Higher therefore signals much free substance. On to `CC1(c2ccc(-c3[nH]c4cc(F)cc5c4c3CONC5=O)cc2)CCCN1` (centres unmarked) [Example 25_A], for which the “Residual content after 60 min of incubation” value (“Residual content after 60 min” below) in data set [1] was 40.7%. Moreover, the unbound share (fraction unbound) at 4 h, 2 μM in data set [2] was 0.077.

As usually defined, the IC50 is the concentration needed to halve the response being measured. Higher therefore signals a need for much substance. Consider `CC1(c2ccc(-c3[nH]c4cc(F)cc5c4c3CONC5=O)cc2F)CCCN1` (single isomer, unassigned) [Example 26_A], for which the “Residual content after 60 min” value in data set [1] was found to be 57.7%. Also, half-maximal inhibition in the data set on PARylation (IC50) was put at 25 nM. Moreover, the unbound share (fraction unbound) at 4 h, 2 μM in data set [2] is 0.097.

For the compound `O=C1NOCc2c(-c3ccc(C4CCCN4)c(F)c3)[nH]c3cccc1c23` (centres unmarked) [Example 11_A], the “Residual content after 60 min” value in data set [1] was 57.1%. Further, it took 27 nM to reach half-maximal inhibition in the data set with PARylation (IC50). For the same compound, in data set [2], the fraction unbound at 4 h, 2 μM is 0.035.

For `O=C1NOCc2c(-c3ccc(C4CCCN4)cc3)[nH]c3cc(F)cc1c23` (single isomer, unassigned) [Example 24_A], the “Residual content after 60 min” value in data set [1] amounted to 52.3%. This compound also registered an IC50 in the data set with PARylation of 23 nM. Further, in data set [2], the fraction unbound at 4 h, 2 μM is 0.036.

With `CC1(c2ccc(-c3[nH]c4cccc5c4c3CONC5=O)cc2)CCCN1` (centres unmarked) [Example 6_A], the “Residual content after 60 min” value in data set [1] stood at 45.6%. In addition, the half-maximal inhibitory concentration (IC50) with PARylation stood at 19 nM. The free fraction (fraction unbound) at 4 h, 2 μM in data set [2] was 0.176.
